How the values were obtained:
[1] = Body weight and survival of xenografted mice under ICA-1 treatment
Description: Briefly, nine female athymic nude mice, weighing 17 to 23 grams, were divided into 3 groups: Group 1, mice received human glioblastoma xenografts and were treated with saline controls (n=3); Group 2, mice received human glioblastoma xenografts and were treated with ICA-1 (80 mg/kg/day; 20 μM) immediately after glioma implantation (n=3); Group 3, mice received human glioblastoma xenografts and were treated with ICA-1 (80 mg/kg/day, 20 μM) when the tumor reached 100 mm^3 on day 5 post implantation (n=3).
Human glioblastoma cell line U-87 MG, a commonly-studied human grade IV glioblastoma-astrocytoma, epithelial-like cell line, was injected subcutaneously into right flank (1×10^6 cells/flank in 0.1 ml PBS) of the mice. The cell injection site was marked. After glioblastoma implantation, ICA-1 (80 mg/kg/day; 20 μM) was subcutaneously injected, daily, into and around the tumor/cell injection area of Groups 2 and 3 mice; Group 1 mice was treated with vehicle. Tumor volume was calculated using the following formula: length×width×width×½.

[2] = tested on: Human glioblastoma cell line U-87 MG; assay: Human glioblastoma U-87 MG subcutaneous xenograft in athymic nude mice, tumor volume; format: in vivo, female athymic nude mice
Text: The cell injection site was marked.

[3] = Group 2: ICA-1 80 mg/kg/day daily from implantation

NC(=O)c1ncn(C2CC(COP(=O)(O)O)C(O)C2O)c1N (stereo not drawn) [ICA-1, 1H-imidazole-4-carboxamide, 5-amino-1-[2,3-dihydroxy-4-[(phosphonooxy)methyl]cyclopentyl]-[1R-(1α, 2β, 3β, 4α)]]
body weight [1, 3]: lost significant weight
survival / lethality [1, 3]: died seven days post ICA-1 treatment
body weight ([1]; Group 3: ICA-1 80 mg/kg/day for 4 days (day 5-day 9 post implantation)): did not exhibit significant weight loss
tumor growth ([2]; Group 2: ICA-1 80 mg/kg/day (20 μM) s.c. daily into and around tumor area, started immediately after glioma implantation): prevented tumor growth
tumor growth ([2]; Group 3: ICA-1 80 mg/kg/day (20 μM) s.c. daily, started when tumor reached 100 mm^3 on day 5 post implantation): prevented tumor growth
glioma volume ([2]; Group 3: ICA-1 80 mg/kg/day, 4 days of treatment (day 5-day 9 post implantation)): reduced glioma volume
glioma size after the ICA-1 treatment was terminated ([2]; Group 3: after termination of treatment on day 9 post implantation): continued to reduce
glioma size relative to that of the control mice ([2]; Group 3: end of study period, 8 days after termination of ICA-1 treatment (80 mg/kg/day, day 5-day 9)): 53%

Source: US8716266B2, “Use of PKC-iota inhibitors for the treatment of glioma” (University of South Florida, priority 2011, dated 2014)
